How the values were obtained:
[1] = molecular target: T1, NAD-dependent protein deacetylase sirtuin-1 (Homo sapiens) (UniProt Q96EB6); experiment: Inhibition of full length human SIRT1 expressed in Escherichia coli BL21 (DE3) cells at 100 uM using fluorogenic 7-amino-4-methylcoumarin (AMC)-labeled peptide by fluorescence assay
T1 sequence (whole entry): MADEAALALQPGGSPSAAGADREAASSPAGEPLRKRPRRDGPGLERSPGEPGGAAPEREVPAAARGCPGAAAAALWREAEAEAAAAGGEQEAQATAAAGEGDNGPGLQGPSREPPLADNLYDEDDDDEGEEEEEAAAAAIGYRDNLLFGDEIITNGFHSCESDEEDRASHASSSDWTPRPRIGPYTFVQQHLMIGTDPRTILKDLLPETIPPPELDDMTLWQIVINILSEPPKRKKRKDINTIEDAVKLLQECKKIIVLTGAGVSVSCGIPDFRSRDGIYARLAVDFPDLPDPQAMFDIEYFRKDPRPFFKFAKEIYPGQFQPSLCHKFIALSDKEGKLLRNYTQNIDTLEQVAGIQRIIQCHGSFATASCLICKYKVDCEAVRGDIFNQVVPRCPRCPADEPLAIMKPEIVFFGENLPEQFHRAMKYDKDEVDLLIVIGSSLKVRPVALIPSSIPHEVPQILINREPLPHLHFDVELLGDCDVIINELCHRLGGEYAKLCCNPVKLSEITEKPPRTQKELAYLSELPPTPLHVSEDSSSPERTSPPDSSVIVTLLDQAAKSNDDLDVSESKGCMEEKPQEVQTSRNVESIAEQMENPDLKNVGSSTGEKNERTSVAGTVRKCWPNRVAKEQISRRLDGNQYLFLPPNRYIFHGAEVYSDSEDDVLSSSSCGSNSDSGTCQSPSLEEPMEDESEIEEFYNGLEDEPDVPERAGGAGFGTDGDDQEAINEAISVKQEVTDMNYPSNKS

[2] = molecular target: T2, NAD-dependent protein deacetylase sirtuin-2 (Homo sapiens) (UniProt Q8IXJ6); experiment: Inhibition of full length human SIRT2 expressed in Escherichia coli BL21 (DE3) cells at 100 uM using fluorogenic 7-amino-4-methylcoumarin (AMC)-labeled peptide by fluorescence assay
T2 sequence (whole entry): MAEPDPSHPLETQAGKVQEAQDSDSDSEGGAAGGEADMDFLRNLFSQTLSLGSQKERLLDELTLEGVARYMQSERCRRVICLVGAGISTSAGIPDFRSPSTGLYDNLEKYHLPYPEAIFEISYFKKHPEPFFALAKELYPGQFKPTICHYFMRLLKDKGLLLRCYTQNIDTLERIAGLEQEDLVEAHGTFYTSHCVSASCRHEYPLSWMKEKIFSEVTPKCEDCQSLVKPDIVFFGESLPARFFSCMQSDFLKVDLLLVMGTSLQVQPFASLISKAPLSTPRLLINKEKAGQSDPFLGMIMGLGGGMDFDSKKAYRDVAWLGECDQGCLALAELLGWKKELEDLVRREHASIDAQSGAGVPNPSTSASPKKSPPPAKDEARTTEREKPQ

[3] = molecular target: T3, NAD-dependent protein deacetylase sirtuin-3, mitochondrial (Homo sapiens) (UniProt Q9NTG7); conditions: BL21-DE3, 100 uM
T3 sequence (whole entry): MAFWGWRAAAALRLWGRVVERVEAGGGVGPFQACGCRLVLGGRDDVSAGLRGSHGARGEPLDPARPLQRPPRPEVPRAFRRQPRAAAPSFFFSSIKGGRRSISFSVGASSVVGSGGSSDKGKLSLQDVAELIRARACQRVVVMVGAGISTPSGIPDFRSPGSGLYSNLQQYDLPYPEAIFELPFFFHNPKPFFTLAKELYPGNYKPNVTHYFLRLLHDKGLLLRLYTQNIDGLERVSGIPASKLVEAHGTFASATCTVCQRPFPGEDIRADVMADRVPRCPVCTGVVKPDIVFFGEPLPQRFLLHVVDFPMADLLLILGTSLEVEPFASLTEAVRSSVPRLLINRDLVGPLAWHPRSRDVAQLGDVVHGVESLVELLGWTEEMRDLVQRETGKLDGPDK

[4] = molecular target: T4, NAD-dependent protein deacetylase sirtuin-1 (Homo sapiens, UniProt Q96EB6); experiment: biochemical; format: cell-based, BL21-DE3
T4 sequence (Q96EB6 whole entry): T1 sequence (whole entry)
Description: Inhibition of full length human SIRT1 expressed in Escherichia coli BL21 (DE3) cells using fluorogenic 7-amino-4-methylcoumarin (AMC)-labeled peptide by fluorescence assay

[5] = molecular target: T5, NAD-dependent protein deacetylase sirtuin-2 (Homo sapiens, UniProt Q8IXJ6); experiment: Inhibition of full length human SIRT2 expressed in Escherichia coli BL21 (DE3) cells using fluorogenic 7-amino-4-methylcoumarin (AMC)-labeled peptide by fluorescence assay
T5 sequence (Q8IXJ6 whole entry): T2 sequence (whole entry)

[6] = molecular target: T6, NAD-dependent protein deacetylase sirtuin-3, mitochondrial (Homo sapiens, UniProt Q9NTG7); experiment: biochemical
T6 sequence (Q9NTG7 whole entry): T3 sequence (whole entry)
Description: Inhibition of catalytically active human SIRT3 (102 to 399 amino acids) expressed in Escherichia coli BL21 (DE3) cells using fluorogenic 7-amino-4-methylcoumarin (AMC)-labeled peptide by fluorescence assay

inhibition [1] [%]	inhibition [2] [%]	inhibition [3] [%]	IC50 [4] [µM]	IC50 [5] [nM]	IC50 [6] [µM]	SMILES
20	41	< 10				NC(=O)c1ccc(Sc2ccc3ccccc3c2)cc1
31	61	44				NC(=O)c1ccc(Oc2ccc3ccccc3c2)nc1
			11.7	811		NC(=O)c1cncc(Oc2ccc3c(NC(=O)c4cccc([N+](=O)[O-])c4)cccc3c2)c1
31	73	42				NC(=O)c1ccc(Sc2ccc3ccccc3c2)nc1
< 10	20	< 10				NC(=O)c1ccc(Nc2ccc3ccccc3c2)nc1
< 10	< 10	< 10				O=C(Nc1cccc2cccc(S(=O)(=O)O)c12)c1cccc([N+](=O)[O-])c1
			70.7	558		NC(=O)c1cncc(Oc2cccc3c(NC(=O)c4cccnc4)cccc23)c1
			15.4	955		NC(=O)c1cncc(Oc2cccc3c(NC(=O)c4ccncc4)cccc23)c1
19	24	22				Cc1ccc(C(=O)Nc2cccc3cc(S(=O)(=O)O)ccc23)cc1
			18.7	77.4		Cc1ccc(C(=O)Nc2cccc3c(Oc4cncc(C(N)=O)c4)cccc23)cc1
19	38	< 10				Cc1ccc(C(=O)Nc2cccc3cc(S(=O)(=O)O)ccc23)cc1[N+](=O)[O-]
26	< 10	< 10				Cc1ccc(C(=O)Nc2cccc3cccc(S(=O)(=O)O)c23)cc1[N+](=O)[O-]
35	66	35				NC(=O)c1cccc(Oc2cccc3ccccc23)c1
			64	434		NC(=O)c1cncc(Oc2cccc3c(NC(=O)c4cccc([N+](=O)[O-])c4)cccc23)c1
			26.9	12100		NC(=O)c1cncc(Sc2ccc3ccccc3c2)c1
< 10	24	< 10				NC(=O)c1ccc(Sc2cccc3ccccc23)cc1
			0.788	869	4.37	Cc1ccc(C(=O)Nc2cccc3cc(Oc4cncc(C(N)=O)c4)ccc23)cc1[N+](=O)[O-]
40	47	42				NC(=O)c1ccc(Sc2cccc3ccccc23)nc1
			4.89	7570		NC(=O)c1cncc(Oc2cccc3ccccc23)c1
11	13	< 10				Cc1ccc(C(=O)Nc2ccc(S(=O)(=O)O)c3ccccc23)cc1N
< 10	< 10	22				NC(=O)c1ccc(Nc2cccc3ccccc23)cc1
			13.5	6290	2.14	NC(=O)c1cncc(Oc2ccc3ccccc3c2)c1
			30.3	9800		NC(=O)c1cncc(Sc2cccc3ccccc23)c1
			33.6	4300		NC(=O)c1cncc(Nc2ccc3ccccc3c2)c1
14	13	< 10				Cc1ccc(C(=O)Nc2cccc3cc(S(=O)(=O)O)ccc23)cc1N

inhibition [1] [%]	inhibition [2] [%]	inhibition [3] [%]	IC50 [4] [µM]	IC50 [5] [nM]	IC50 [6] [µM]	SMILES
17	< 10	15				O=C(Nc1cccc2cccc(S(=O)(=O)O)c12)c1ccccc1
< 10	65	< 10				NC(=O)c1cccc(Nc2ccc3ccccc3c2)c1
			22.4	436		NC(=O)c1cncc(Oc2ccc3c(NC(=O)c4ccccc4)cccc3c2)c1
< 10	10	25				O=C(Nc1ccc(S(=O)(=O)O)c2ccccc12)c1ccccc1
			40.9	9700	9	NC(=O)c1cncc(Nc2cccc3ccccc23)c1
23	25	22				Cc1ccc(C(=O)Nc2ccc(S(=O)(=O)O)c3ccccc23)cc1[N+](=O)[O-]
12	< 10	16				Cc1ccc(C(=O)Nc2cccc3cccc(S(=O)(=O)O)c23)cc1N
< 10	< 10	10				Cc1ccc(C(=O)Nc2cccc3cccc(S(=O)(=O)O)c23)cc1
< 10	< 10	< 10				Nc1cccc(C(=O)Nc2ccc(S(=O)(=O)O)c3ccccc23)c1
< 10	46	< 10				NC(=O)c1cccc(Nc2cccc3ccccc23)c1
			3.82	489		Cc1ccc(C(=O)Nc2cccc3cc(Oc4cncc(C(N)=O)c4)ccc23)cc1
< 10	29	23				O=C(Nc1ccc(S(=O)(=O)O)c2ccccc12)c1cccc([N+](=O)[O-])c1
< 10	15	47				NC(=O)c1ccc(Nc2ccc3ccccc3c2)cc1
< 10	16	< 10				NC(=O)c1ccc(Oc2ccc3ccccc3c2)cc1
			100	978		Cc1ccc(C(=O)Nc2cccc3c(Oc4cncc(C(N)=O)c4)cccc23)cc1[N+](=O)[O-]
			135			N#C/C(=C\c1ccc(-c2cc(Cl)ccc2Cl)o1)C(=O)Nc1cccc2ncccc12
12	< 10	< 10				Nc1cccc(C(=O)Nc2cccc3cccc(S(=O)(=O)O)c23)c1
< 10	27	10				NC(=O)c1ccc(Oc2cccc3ccccc23)cc1
19	41	38				NC(=O)c1ccc(Nc2cccc3ccccc23)nc1
22	17	25				Cc1ccc(C(=O)Nc2ccc(S(=O)(=O)O)c3ccccc23)cc1
< 10	< 10	< 10				Nc1cccc(C(=O)Nc2cccc3cc(S(=O)(=O)O)ccc23)c1
47	84	49				NC(=O)c1cccc(Oc2ccc3ccccc3c2)c1
13	22	< 10				O=C(Nc1cccc2cc(S(=O)(=O)O)ccc12)c1cccc([N+](=O)[O-])c1
< 10	33	39				NC(=O)c1ccc(Oc2cccc3ccccc23)nc1
< 10	< 10	21				O=C(Nc1cccc2cc(S(=O)(=O)O)ccc12)c1ccccc1

Reference: ChEMBL document CHEMBL3351796, “Discovery of potent and selective sirtuin 2 (SIRT2) inhibitors using a fragment-based approach” (J Med Chem, 2014)
